The assay relates to HeLa. As to the kind of experiment: Cell cycle arrest in human HeLa cells assessed as accumulation at G0/G1 phase at 30 uM after 24 hrs by propidium iodide staining based flow cytometry (reference value: 52%). Type of assay: functional. (In flow cytometry, cells or beads pass a laser one at a time.)

The record followed here is ChEMBL document CHEMBL4014338, “Discovery of Small Molecules as Multi-Toll-like Receptor Agonists with Proinflammatory and Anticancer Activities” (J Med Chem, 2017).

SMILES strings stand for the structures.

Turning to `O=[N+]([O-])c1ccc(COc2cc3c(cc2OCc2ccc([N+](=O)[O-])cc2)OC2(C=C3)CCOCC2)cc1`, the Activity is reported as 41%.
